Measurements from ChEMBL document CHEMBL1201862, “PubChem BioAssay data set” (2004).
Calls of active or inactive are those of the source.

How the values were obtained:
Trypsin = Trypsin (Sus scrofa, UniProt P00761); test: trypsin protease activity blockade – biochemical, quenched peptide fluorescence, cherry-pick, selectivity assay for Rce1 protease inhibitor project, dose response (AID 488789)
CAAX prenyl protease 1 = CAAX prenyl protease 1 (Saccharomyces cerevisiae S288c, UniProt P47154); test: yeast CAAX protease Ste24 inhibition – biochemical, S. cerevisiae, plate reader, cherry-pick, dose response (AID 488815)
NS3 = NS3 (Hepatitis C virus, UniProt A3EZJ3); test: PubChem AID 2173; set-up: species or system Hepacivirus hominis
[1] = biological target: T1, Dual specificity protein phosphatase 3 (Homo sapiens, UniProt P51452); test: VHR1 phosphatase inhibitors, primary screen, biochemical, absorbance, uHTS (AID 1654)
T1 sequence (P51452 whole entry): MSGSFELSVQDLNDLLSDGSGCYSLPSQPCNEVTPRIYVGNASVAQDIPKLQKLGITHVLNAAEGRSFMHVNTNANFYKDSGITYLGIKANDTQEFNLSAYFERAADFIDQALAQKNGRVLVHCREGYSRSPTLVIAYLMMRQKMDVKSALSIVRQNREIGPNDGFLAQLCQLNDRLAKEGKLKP

[2] = biological target: T1, Dual specificity protein phosphatase 3; test: VHR1 phosphatase inhibitors, biochemical (AID 1878)
[3] = biological target: T2, Voltage-gated N-type calcium channel alpha-1B subunit/Amyloid beta A4 precursor protein-binding family A member 1 (Homo sapiens, UniProt Q00975+Q02410); assay type: protein assay
T2 sequence (Q00975 whole entry): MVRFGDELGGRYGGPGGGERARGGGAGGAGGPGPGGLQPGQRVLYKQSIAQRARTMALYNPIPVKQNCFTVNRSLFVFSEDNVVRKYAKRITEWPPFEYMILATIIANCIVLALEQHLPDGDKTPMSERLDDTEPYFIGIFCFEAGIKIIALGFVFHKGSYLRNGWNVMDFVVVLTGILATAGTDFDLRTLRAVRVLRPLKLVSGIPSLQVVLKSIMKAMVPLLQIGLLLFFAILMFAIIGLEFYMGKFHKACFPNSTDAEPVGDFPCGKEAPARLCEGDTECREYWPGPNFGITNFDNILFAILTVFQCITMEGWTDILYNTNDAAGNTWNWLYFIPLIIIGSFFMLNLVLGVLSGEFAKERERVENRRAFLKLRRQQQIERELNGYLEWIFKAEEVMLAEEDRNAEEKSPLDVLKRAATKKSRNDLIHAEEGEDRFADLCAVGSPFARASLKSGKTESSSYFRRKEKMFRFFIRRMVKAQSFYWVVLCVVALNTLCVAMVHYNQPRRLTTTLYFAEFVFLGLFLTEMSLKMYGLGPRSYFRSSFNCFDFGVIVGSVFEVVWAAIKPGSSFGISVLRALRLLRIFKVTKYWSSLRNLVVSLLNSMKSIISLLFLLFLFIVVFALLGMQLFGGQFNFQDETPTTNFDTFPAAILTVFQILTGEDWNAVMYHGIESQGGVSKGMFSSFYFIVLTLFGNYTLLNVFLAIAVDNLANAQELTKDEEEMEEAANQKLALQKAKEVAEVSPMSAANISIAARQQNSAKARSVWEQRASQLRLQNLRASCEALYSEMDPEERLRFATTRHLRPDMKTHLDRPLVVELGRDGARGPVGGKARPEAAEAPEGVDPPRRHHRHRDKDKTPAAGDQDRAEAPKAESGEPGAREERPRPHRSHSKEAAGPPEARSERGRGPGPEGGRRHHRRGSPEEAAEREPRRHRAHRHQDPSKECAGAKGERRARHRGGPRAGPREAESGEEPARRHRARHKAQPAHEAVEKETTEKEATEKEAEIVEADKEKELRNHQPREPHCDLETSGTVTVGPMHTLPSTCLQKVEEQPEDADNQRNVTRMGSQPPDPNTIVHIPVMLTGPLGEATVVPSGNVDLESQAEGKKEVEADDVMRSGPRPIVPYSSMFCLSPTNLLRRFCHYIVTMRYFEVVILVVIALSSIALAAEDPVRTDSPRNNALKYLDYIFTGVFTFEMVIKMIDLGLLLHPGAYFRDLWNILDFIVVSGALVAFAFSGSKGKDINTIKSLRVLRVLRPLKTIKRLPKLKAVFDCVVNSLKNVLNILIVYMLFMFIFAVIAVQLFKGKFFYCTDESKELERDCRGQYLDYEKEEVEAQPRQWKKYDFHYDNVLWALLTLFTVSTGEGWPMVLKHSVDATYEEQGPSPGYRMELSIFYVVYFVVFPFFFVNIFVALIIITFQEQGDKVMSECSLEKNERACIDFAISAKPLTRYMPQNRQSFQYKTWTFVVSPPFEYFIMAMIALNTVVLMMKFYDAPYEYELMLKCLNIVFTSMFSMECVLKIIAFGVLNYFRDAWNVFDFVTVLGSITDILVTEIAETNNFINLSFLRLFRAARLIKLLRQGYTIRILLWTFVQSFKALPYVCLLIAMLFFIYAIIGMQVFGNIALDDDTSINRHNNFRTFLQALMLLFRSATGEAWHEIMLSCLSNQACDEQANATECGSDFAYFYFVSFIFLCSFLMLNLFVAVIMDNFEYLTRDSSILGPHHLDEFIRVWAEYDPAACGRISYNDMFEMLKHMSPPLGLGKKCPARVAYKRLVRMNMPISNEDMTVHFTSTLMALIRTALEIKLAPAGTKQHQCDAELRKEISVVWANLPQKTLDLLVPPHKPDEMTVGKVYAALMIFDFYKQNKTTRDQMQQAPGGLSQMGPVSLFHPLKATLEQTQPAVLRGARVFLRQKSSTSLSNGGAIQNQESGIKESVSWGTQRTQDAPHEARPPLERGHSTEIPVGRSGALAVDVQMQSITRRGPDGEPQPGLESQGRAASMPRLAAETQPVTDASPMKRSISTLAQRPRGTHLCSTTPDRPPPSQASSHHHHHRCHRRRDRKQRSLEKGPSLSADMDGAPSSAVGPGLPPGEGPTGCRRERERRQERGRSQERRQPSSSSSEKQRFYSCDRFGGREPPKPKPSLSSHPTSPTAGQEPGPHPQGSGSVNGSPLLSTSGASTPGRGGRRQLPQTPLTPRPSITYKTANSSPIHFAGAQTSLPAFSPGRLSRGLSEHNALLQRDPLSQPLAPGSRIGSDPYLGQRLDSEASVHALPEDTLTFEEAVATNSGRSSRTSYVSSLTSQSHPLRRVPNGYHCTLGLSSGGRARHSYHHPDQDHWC
T2 sequence (Q02410 whole entry): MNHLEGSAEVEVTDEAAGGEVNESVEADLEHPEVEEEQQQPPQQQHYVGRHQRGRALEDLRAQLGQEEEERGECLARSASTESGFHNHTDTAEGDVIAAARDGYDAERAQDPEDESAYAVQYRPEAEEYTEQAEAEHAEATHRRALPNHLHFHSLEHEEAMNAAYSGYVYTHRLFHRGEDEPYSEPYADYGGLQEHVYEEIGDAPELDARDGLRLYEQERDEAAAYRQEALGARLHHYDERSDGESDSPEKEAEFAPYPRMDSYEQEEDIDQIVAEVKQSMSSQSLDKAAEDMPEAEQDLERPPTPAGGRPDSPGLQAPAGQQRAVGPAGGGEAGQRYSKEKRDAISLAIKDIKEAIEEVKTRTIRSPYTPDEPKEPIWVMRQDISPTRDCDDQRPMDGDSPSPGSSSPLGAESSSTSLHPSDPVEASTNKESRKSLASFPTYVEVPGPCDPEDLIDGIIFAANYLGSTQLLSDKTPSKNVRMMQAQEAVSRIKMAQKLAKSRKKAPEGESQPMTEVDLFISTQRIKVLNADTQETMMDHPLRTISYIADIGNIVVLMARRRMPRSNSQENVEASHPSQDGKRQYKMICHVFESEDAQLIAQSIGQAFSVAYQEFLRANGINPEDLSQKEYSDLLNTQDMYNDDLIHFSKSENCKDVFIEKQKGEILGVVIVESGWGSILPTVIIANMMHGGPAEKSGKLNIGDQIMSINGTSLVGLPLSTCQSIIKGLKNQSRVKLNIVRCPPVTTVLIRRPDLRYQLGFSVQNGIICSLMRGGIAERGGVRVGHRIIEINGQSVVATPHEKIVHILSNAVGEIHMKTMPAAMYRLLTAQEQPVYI

Cysteine protease ATG4B = biological target: T3, Cysteine protease ATG4B (Homo sapiens, UniProt Q9Y4P1); assay type: functional;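 also: Fluorescence-based dose-response confirmation assay measuring inhibition of ATG4B activity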
T3 sequence (Q9Y4P1 whole entry): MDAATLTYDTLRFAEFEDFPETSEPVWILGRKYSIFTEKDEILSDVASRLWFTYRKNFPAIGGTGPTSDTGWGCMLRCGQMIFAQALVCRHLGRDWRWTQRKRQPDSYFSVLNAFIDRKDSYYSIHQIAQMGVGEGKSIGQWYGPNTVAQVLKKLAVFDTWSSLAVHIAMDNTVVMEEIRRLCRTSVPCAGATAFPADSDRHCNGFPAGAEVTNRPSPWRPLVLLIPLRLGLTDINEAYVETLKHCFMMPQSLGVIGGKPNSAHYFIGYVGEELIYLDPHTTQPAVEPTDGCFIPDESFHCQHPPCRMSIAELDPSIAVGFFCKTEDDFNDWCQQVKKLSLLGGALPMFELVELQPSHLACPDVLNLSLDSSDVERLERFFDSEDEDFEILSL

Bcl-2-like protein 1 = Bcl-2-like protein 1 (Homo sapiens, UniProt Q07817); test: blockers of BCLXL peptide binding – biochemical, fluorescence polarization, 1536-well, selectivity assay for MCL1 inhibitor project, dose response (AID 2218)
Phospholipase A2 = Phospholipase A2 (Homo sapiens, UniProt P04054); assay type: functional;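 also: confirmatory dose-response counterscreen on phospholipase A2, testing hits that came from an ultra-high-throughput screen for ATG4B inhibitors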
Sequence of Phospholipase A2 (P04054 whole entry): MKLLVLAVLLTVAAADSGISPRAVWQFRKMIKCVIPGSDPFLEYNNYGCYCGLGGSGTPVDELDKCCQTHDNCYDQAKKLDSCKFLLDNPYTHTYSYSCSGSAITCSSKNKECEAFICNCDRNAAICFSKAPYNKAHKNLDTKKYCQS

[4] = biological target: T2, Voltage-gated N-type calcium channel alpha-1B subunit/Amyloid beta A4 precursor protein-binding family A member 1; assay type: protein assay; remark: listed apart in the source
[5] = antiviral protection against BTV-induced cell death – arbovirus, BSR cells, confirmation (AID 1250); assay type: functional;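 also: protection from viral cytopathic effect measured as cell viability by ATP luminescence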
[6] = biological target: Dual specificity protein phosphatase 6 (Rattus norvegicus, UniProt Q64346); test: inhibition of rat DUSP6 enzyme activity – biochemical, in vitro, primary screen (AID 425)
[7] = biological target: T4, Induced myeloid leukemia cell differentiation protein Mcl-1 (Homo sapiens, UniProt Q07820); test: blockers of MCL1 binding to BIM peptide – biochemical, fluorescence polarization, BIM-BH3 peptide, 1536-well, dose response (AID 2217)
T4 sequence (Q07820 whole entry): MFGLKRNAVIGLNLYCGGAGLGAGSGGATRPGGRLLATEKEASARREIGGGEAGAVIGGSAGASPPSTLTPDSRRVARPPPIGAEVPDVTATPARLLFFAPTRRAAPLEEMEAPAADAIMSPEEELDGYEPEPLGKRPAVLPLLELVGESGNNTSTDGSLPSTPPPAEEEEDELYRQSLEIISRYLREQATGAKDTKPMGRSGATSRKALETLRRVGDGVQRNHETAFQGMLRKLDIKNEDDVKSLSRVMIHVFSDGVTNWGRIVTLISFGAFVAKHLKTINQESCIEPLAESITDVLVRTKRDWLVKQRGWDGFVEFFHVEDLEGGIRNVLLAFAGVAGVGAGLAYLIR

[8] = biological target: Eukaryotic translation initiation factor 4E (Mus musculus, UniProt P63073); test: blockers of eIF4G binding by eIF4E – biochemical, TR-FRET, dose response (AID 855); assay type: functional;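 also: potency for disrupting eIF4E binding to eIF4GI seen as loss of FRET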
[9] = biological target: T4, Induced myeloid leukemia cell differentiation protein Mcl-1; assay type: functional
[10] = biological target: T5, Delta-type opioid receptor (Homo sapiens, UniProt P41143); test: delta opioid receptor blockers – image-based, SAR follow-up (AID 2357); assay type: functional
T5 sequence (P41143 whole entry): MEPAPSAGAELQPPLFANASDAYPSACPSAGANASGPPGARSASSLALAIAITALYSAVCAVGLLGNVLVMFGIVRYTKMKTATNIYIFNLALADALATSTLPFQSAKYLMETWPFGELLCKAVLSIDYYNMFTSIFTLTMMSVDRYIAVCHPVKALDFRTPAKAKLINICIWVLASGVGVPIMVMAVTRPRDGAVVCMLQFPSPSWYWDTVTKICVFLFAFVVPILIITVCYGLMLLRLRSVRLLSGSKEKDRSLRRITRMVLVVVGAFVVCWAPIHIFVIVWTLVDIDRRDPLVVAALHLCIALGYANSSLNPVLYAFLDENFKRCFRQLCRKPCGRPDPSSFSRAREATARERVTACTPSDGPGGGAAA

Mu-type opioid receptor [11] = biological target: T6, Mu-type opioid receptor (Homo sapiens, UniProt P35372); test: mu opioid receptor activators, image-based, SAR follow-up (AID 2352); assay type: functional
T6 sequence (P35372 whole entry): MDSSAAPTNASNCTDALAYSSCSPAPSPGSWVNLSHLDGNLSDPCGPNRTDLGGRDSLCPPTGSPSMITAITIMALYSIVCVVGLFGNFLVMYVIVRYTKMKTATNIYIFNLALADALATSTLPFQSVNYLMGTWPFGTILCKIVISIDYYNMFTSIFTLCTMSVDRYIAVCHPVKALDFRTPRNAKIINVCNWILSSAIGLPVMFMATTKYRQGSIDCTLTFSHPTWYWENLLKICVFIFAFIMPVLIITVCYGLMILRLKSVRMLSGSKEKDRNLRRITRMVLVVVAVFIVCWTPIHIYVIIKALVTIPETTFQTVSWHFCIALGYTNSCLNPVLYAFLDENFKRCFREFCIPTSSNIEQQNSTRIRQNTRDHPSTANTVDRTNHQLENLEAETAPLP

Mu-type opioid receptor [12] = biological target: T6, Mu-type opioid receptor; test: mu opioid receptor blockers – image-based, SAR follow-up (AID 2420); assay type: functional;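 also: compounds added before stimulation of receptor with agonist DAMGO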
[13] = biological target: T7, Kappa-type opioid receptor (Homo sapiens, UniProt P41145); test: kappa opioid receptor blockers, cell-based, luminescence, beta-arrestin, SAR follow-up (AID 2285); assay type: functional
T7 sequence (P41145 whole entry): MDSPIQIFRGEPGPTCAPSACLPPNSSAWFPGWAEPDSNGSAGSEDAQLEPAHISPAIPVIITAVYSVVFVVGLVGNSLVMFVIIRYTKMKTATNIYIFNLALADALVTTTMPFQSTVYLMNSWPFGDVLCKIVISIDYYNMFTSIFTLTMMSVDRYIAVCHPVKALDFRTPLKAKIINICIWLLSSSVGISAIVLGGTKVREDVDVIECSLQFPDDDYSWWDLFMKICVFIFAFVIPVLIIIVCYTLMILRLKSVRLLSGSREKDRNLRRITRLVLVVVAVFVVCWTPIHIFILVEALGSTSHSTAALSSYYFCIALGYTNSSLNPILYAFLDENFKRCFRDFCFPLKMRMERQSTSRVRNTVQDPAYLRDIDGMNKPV

[14] = biological target: T5, Delta-type opioid receptor; test: DOR agonists, SAR follow-up, image-based (AID 2370); assay type: functional
[15] = biological target: T7, Kappa-type opioid receptor; test: kappa opioid receptor blockers, image-based, SAR follow-up (AID 2348); assay type: functional
[16] = biological target: T7, Kappa-type opioid receptor; test: kappa opioid receptor activation potency – imaging, image-based, SAR follow-up (AID 2359); assay type: functional

Which AC50 (Trypsin) does the source give for `CCCCNC(=O)C(CC)Sc1nc2sc(C(=O)OC)c(C)c2c(=O)n1N` (configuration not stated) here?
The AC50 was 985 nM (active).

What about the AC50 (CAAX prenyl protease 1) of the same molecule?
The AC50 was 8.14 µM (active).

Which IC50 (NS3) does the source give for `COc1ccc(-n2cccc2/C=C2\C(=N)N3N=C(c4ccco4)SC3=NC2=O)cc1` here?
Its IC50 is 7.79 µM (active).

And the IC50 [1]?
Its IC50 is 6.65 µM (active).

And the IC50 [2]?
The IC50 was 2.27 µM (active).

What about the IC50 [3] of the same molecule?
Its IC50 is 14.1 µM (active).

And the IC50 (Cysteine protease ATG4B)?
Its IC50 is 2.73 µM (active).

What about the IC50 (Bcl-2-like protein 1) of the same molecule?
Its IC50 is > 109 µM (not active).

What about the IC50 (Phospholipase A2) of the same molecule?
The IC50 was 1.09 µM (active).

What about the IC50 [4] of the same molecule?
The IC50 was > 50 µM (inactive).

And the IC50 [5]?
The IC50 was 33.2 µM (active).

What about the IC50 [6] of the same molecule?
The IC50 was 9.04 µM (active).

What about the IC50 [7] of the same molecule?
Its IC50 is 4.93 µM (active).

And the IC50 [8]?
The IC50 was 50 µM (inactive).

What about the IC50 [9] of the same molecule?
The IC50 was 19.3 µM (active).

Which IC50 [10] does the source give for `Oc1ccc(C=NNc2ccnc3cc(Cl)ccc23)cc1O` here?
The IC50 was 18.9 µM (inactive).

And the EC50 (Mu-type opioid receptor [11])?
Its EC50 is > 32 µM (inactive).

And the IC50 (Mu-type opioid receptor [12])?
The IC50 was > 32 µM (inactive).

And the IC50 [13]?
Its IC50 is > 10 µM (inactive).

What about the EC50 [14] of the same molecule?
Its EC50 is > 32 µM (inactive).

What about the IC50 [15] of the same molecule?
Its IC50 is 24.8 µM (inactive).

What about the EC50 [16] of the same molecule?
The EC50 was > 32 µM (inactive).
